Test results taken from patent publication US6489312B1, “Pharmaceutical formulations comprising aminoalkyl phosphorothioates” (MedImmune Oncology, Inc., priority 1999, dated 2002).

Experiments:
[1] = tested on: radiation-induced mucositis; experiment: Radiation-induced mucositis in the lip of irradiated mice, total mucositis score (erythema + edema, Parkins scoring); format: in vivo, C57BL/6 female mice; parameters: key to Total Mucositis Score After 11 days: combined erythema + edema score (Parkins), maximum 7; conditions: for Score (total mucositis score): amifostine 50 mg/ml, 200 mg/Kg s.c. 30 minutes before 16.5 Gy irradiation, maximum score 7
Source text: One of the major limiting acute toxicities associated with radiotherapy is radiation-induced mucositis. The ability to reduce the duration and severity of acute mucosal reactions is of particular importance in the radiotherapy and/or chemotherapy of head and neck cancer. Therefore, the radioprotective effects of amifostine were examined in an experimental model of mucositis. In particular, the study compared the radioprotective effects of amifostine by subcutaneous (s.c.) and intraperitoneal (i.p.) administration.
(§1) C57BL/6 female mice of 8-10 weeks old were used and fed with semi liquid food. The mice were randomly divided into treatment groups of five mice each. The treatment groups were, for example,
(§2) Unanesthetized mice were maintained in supine position and irradiated exclusively on the tip of their mouth. […] Irradiation was performed with a RT 250 Philips apparatus delivering 1.98 Gy per min. (200 Kv, 20 mA, filter of 0.2 mm de Cu). During irradiation, a constant normobaric air renewal was maintained. The effects of amifostine were evaluated using a single dose of 16.5 Gy.
(§3) Amifostine was dissolved in appropriate diluent to achieve a final concentration of 50 mg/ml immediately before injections. Amifostine was dissolved in 0.075% sodium deoxycholate to achieve a final concentration of 50 mg/ml. Amifostine was dissolved in a mixture of 2% EDTA and 2% sorbitol to achieve a final concentration of 50 mg/ml. Amifostine was dissolved in 0.2% EDTA to achieve a final concentration of 50 mg/ml. Subcutaneous injections (200 mg/Kg) were conducted 30 minutes before irradiation. Where a control group was used, a first control group was injected with the saline solution and subsequently irradiated, and a second control group was injected with the saline solution, but was not irradiated.
(§4) The effects of irradiation on lip mucosa were evaluated using the scoring system described by Parkins et al. (1983, Radiother. Oncol. 1:159-165). Body weight of the treated mice were scored periodically after treatment. Reduction in body weight was used as an objective indication of the severity of mucositis induced by irradiation, presumably resulting from the inability of the animals to eat. In this model, the acute reactions peaked on day 10 to 11 after irradiation.
Other symptoms of mucositis such as mucosal erythema and edema were also recorded. These symptoms developed more slowly than weight loss following irradiation. Mucosal erythema and edema were scored separately, and could be analyzed as separate scores or as a combined score yielding a maximum score of 7. Mouse lip mucosal erythema was scored according to Table 1.
Mucosal edema (swelling) of the lips was scored according to table 2.
(§5) These examples describe pharmaceutical formulations of the invention comprising amifostine in combination with surfactants and/or hydrotropes and/or chelating agents. The pharmaceutical formulations were administered, and the effects of irradiation on lip mucosa evaluated using the methods described in the first Example above.

[2] = Body weight of irradiated mice as objective indicator of mucositis; format: in vivo, C57BL/6 female mice; conditions: for Weight: amifostine 50 mg/ml, 200 mg/Kg s.c. 30 minutes before 16.5 Gy irradiation
Protocol: as §1, §2, §3, §4, §5

| Structure (SMILES) | Score (total mucositis score) ([1]; Day 0) | Score (total mucositis score) ([1]; Day 6) | Score (total mucositis score) ([1]; Day 10) | Score (total mucositis score) ([1]; Day 11) | Score (total mucositis score) ([1]; Day 12) | Score (total mucositis score) ([1]; Day 18) | Score (total mucositis score) ([1]; Day 28) | Weight ([2]; Day 0) | Weight ([2]; Day 6) | Weight ([2]; Day 10) | Weight ([2]; Day 11) | Weight ([2]; Day 12) | Weight ([2]; Day 18) | Weight ([2]; Day 28) | Effect on body weight reduction after irradiation (in words) ([2]; s.c. administration before irradiation, compared with other groups) | Total Mucositis Score After 11 days ([1]; after 11 days, irradiated mice, methods of Example 1) | % Weight Change After 6 Days ([2]; after 6 days, irradiated mice, methods of Example 1) |
| --- | --- | --- | --- | --- | --- | --- | --- | --- | --- | --- | --- | --- | --- | --- | --- | --- | --- |
| NCCCNCCSP(=O)(O)O [Amifostine, S-2-(3-aminopropylamino)ethyl dihydrogen phosphorothioate] | 0.0 | 0.5 | 1.7 | 1.8 | 1.3 | 0.4 | 0.0 | 16.4 g | 15.8 g | 17.4 g | 17.8 g | 17.6 g | 18.4 g | 19.5 g | Less severe reductions in body weight | – | – |
| NCCCNCCS [WR-1065, S-2-(3-aminopropylamino)ethanethiol] | – | – | – | – | – | – | – | – | – | – | – | – | – | – | – | 5.1 | −8.7% |
